Source: patent US8470889B2 (TRT Pharma Inc., priority 2008, dated 2013)

What was measured:
DU145 cells = test: IL-6 secretion, Human IL-6 ELISA; format: cell-based; conditions: DU-145 cells, 24 hr
[1] = test system: NF-κB-dependent luciferase activity induced by expression of IKKi, TBK1, IKKb and p65; test: NF-κB-dependent luciferase activity in HEK293 cells; format: cell-based; conditions: 24 h, FIG. 11A-C
Description: Compound 10 inhibits IKKβ, IKKε and TBK1 and suppresses NF-κB activation. […] HEK293 cells were transiently transfected with NF-κB-Luc or ISRE-Luc, co-transfected with plasmid encoding IKKi, TBK1, IKKb, p65 or IRF3 (5D), using Lipofectamine™ 2000 reagent (Invitrogen). The transfected cells were treated with DMSO vehicle and test compounds at designated doses for 24 h. Luciferase activity was evaluated using Dual Luciferase Assay System (Promega) and expressed as fold of induction related to the basal level of the reporter gene after normalization with cotransfected Renilla relative light units.
Now referring to FIG. 18, the impact of compounds 10, and SC345, SC346 and SC347 on the NF-κB-dependent luciferase activity induced by expression of TBK1 and IKKβ. HEK293 cells were transiently transfected with NF-κB-Luc, co-transfected with plasmid encoding TBK1 or IKKβ, using Lipofectamine™ 2000 reagent (Invitrogen). The transfected cells were treated with DMSO vehicle and test compounds at 2.5 μM for 24 h. Luciferase activity was evaluated using Dual Luciferase Assay System (Promega) and expressed as fold of induction related to the basal level of the reporter gene after normalization with cotransfected Renilla relative light units.

LNCaP cells = conditions: human, 72 h
HP-LNCaP cells = test: MTT cellular growth, HP-LNCaP; format: cell-based; conditions: FIG. 10
Description: HP-LNCaP cells were grown in the androgen-depleted medium (FIG. 9A) and grow more aggressively than LNCaP cells in the whole medium (FIG. 9B). Cellular growth was evaluated by MTT assays. […] HP-LNCaP cells over-express AR protein (FIG. 10C).

Bic-LNCaP cells = test: MTT cellular growth, Bic-LNCaP; format: cell-based; conditions: FIG. 10
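Throughout, for IC50: MTT formazan absorbance at 600 nm read after 72 h of compound exposure, IC50 fitted by nonlinear regression of dose-response curves, samples run in triplicate.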

Row | Compound | secretion of IL-6 (DU145 cells) | NF-κB-dependent luciferase activity induced by expression of IKKi, TBK1, IKKb and p65 [1] | IC50 (LNCaP cells) [nM] | activity against HP-LNCaP cells (HP-LNCaP cells) | activity against Bic-LNCaP cells (Bic-LNCaP cells)
1 | CC1(C)CCC(O)C=C1/C=C/C(=O)/C=C/c1csc2ccccc12 (centres unmarked) [Compound B92] | suppress secretion | potent effects |  |  | 
2 | CC1(C)CCC(O)C=C1/C=C/C(=O)/C=C/c1cnc2ccccc2c1 (centres unmarked) [Compound B95] |  |  | 630 | remains active | remains active
